Reference: patent publication US8598173B2, “1-[(6,7-substituted alkoxyquinoxalinyl)aminocarbonyl]-4-(hetero)arylpiperazine derivatives for treating tumors” (Korea Research Institute of Chemical Technology, priority 2004, dated 2013)
Where two headings read alike, the source gives them in different places.

Experiments:
MDA-MB-231 (breast) = assay: Cell growth inhibition assay (SRB), MDA-MB-231; assay type: cell-based, human; settings: SRB method, 96 hours incubation
Method: (§1) OVCAR-3, MCF-7, PC3, HepG2, A549, HT-29 and MKN-45 were grown in RPMI1640 medium (Invitrogen, Carlsbad, Calif.) supplemented with 10% fetal bovine serum (‘FBS’), 1 mM sodium pyruvate, 10 mM HEPES and 100 U/ml penicillin and […] streptomycin (‘P/S’). MDA-MB-231, HCT116, UMRC2, Caki-1, PANC-1 and HEK293 cells were maintained in Dulbecco's modified Eagle's medium (‘DMEM’, Invitrogen) supplemented with 10% FBS, P/S, 10 mM HEPES and 2 mM L-glutamine. HUVEC was maintained in M199 supplemented with basic fibroblast growth factor (‘bFGF’) […] and FBS 20%. All cells were incubated at 37° C. under humidified 5% CO2.
(§2) The growth inhibition of the substituted quinoxalin-piperazine compounds against a variety of human tumor cells was evaluated. The relative importance of particular substituent groups on the compounds was also studied. The substituted piperazine derivative compounds, prepared as described above, were tested, along with DMSO as a control.
(§3) The growth inhibition assay of various compounds against human tumor cell lines was performed using the Sulforhodamine B (‘SRB’) method (Skehan et al., J. National Cancer Institute, 1990, 82, 1107-1112). […] Triplicate wells were used for each treatment. The cells were incubated with the various compounds for 96 hours at 37° C. in a humidified 5% CO2 atmosphere. After 96-hour incubation, cells were fixed with 10% trichloroacetic acid (‘TCA’), incubated for 1 hour at 4° C., and washed 3 times with tap water. Subsequently cells were stained with 0.4% sulforhodamine B in 1% acetic acid for 30 minutes, washed 4 times with 1% acetic acid, and air-dried again. After 5 minutes agitation in 10 mM Tris solution, the absorbance of each well was measured at 530 nm using Benchmark Plus Microplate reader (Bio-Rad Laboratories, Hercules, Calif.).
(§4) To translate the OD530 values into the number of live cells in each well, the OD530 values were compared to those on standard OD530-versus-cell number curves generated for each cell line. The percent survival was calculated using the formula: % Survival=live cell number[test]/live cell number[control]×100
(§5) The IC50 values were calculated by non-linear regression analysis.

UMRC2 (kidney) = assay: Cell growth inhibition assay (SRB), UMRC2; assay type: cell-based, human; settings: SRB method, 96 hours incubation
Method: as §1, §2, §3, §4, §5

PANC-1 (pancreas) = assay: Cell growth inhibition assay (SRB), PANC-1; assay type: cell-based, human; settings: SRB method, 96 hours incubation
Method: as §1, §2, §3, §4, §5

MKN-45 (stomach) = assay: Cell growth inhibition assay (SRB), MKN-45; assay type: cell-based; settings: Homo sapiens; SRB method, 96 hours incubation, MKN-45 (stomach); read-out: IC50, MKN-45
Method: as §1, §2, §3, §4, §5

HepG2 (liver) = assay: Cell growth inhibition assay (SRB), HepG2; assay type: cell-based; settings: Homo sapiens; SRB method, 96 hours incubation, HepG2 (liver); read-out: IC50, HepG2
Method: as §1, §2, §3, §4, §5

HT-29 (colon) = assay: Cell growth inhibition assay (SRB), HT-29; assay type: cell-based; settings: Homo sapiens; SRB method, 96 hours incubation, HT-29 (colon); read-out: IC50, HT-29
Method: as §1, §2, §3, §4, §5

HCT116 (colon) = assay: Cell growth inhibition assay (SRB), HCT116; assay type: cell-based; settings: Homo sapiens, HCT-116; SRB method, 96 hours incubation, HCT116 (colon); read-out: IC50, HCT116
Method: as §1, §2, §3, §4, §5

PC3 (prostate) = assay: Cell growth inhibition assay (SRB), PC3; assay type: cell-based; settings: Homo sapiens; SRB method, 96 hours incubation, PC3 (prostate); read-out: IC50, PC3
Method: as §1, §2, §3, §4, §5

OVCAR-3 (ovary) = assay: Cell growth inhibition assay (SRB), OVCAR-3; assay type: cell-based; settings: Homo sapiens; SRB method, 96 hours incubation, OVCAR-3 (ovary); read-out: IC50, OVCAR-3
Method: as §1, §2, §3, §4, §5

[1] = system: MCF-7 (breast, hormone-dependent); assay: Cell growth inhibition assay (SRB), MCF-7; assay type: cell-based; settings: Homo sapiens, MCF7; SRB method, 96 hours incubation, MCF-7 (breast, hormone-dependent); read-out: IC50, MCF-7
Method: as §1, §2, §3, §4, §5

Caki-1 (kidney) = assay: Cell growth inhibition assay (SRB), Caki-1; assay type: cell-based; settings: Homo sapiens; SRB method, 96 hours incubation, Caki-1 (kidney); read-out: IC50, Caki-1
Method: as §1, §2, §3, §4, §5

A549 (lung) = assay: Cell growth inhibition assay (SRB), A549; assay type: cell-based; settings: Homo sapiens; SRB method, 96 hours incubation, A549 (lung); read-out: IC50, A549
Method: as §1, §2, §3, §4, §5

[2] = Homo sapiens, MDA-MB-231 (breast), read-out: IC50, MDA-MB-231
[3] = Homo sapiens, UMRC2 (kidney), read-out: IC50, UMRC2
[4] = Homo sapiens, PANC-1 (pancreas), read-out: IC50, PANC-1
[5] = Homo sapiens, MDA-MB-231, read-out: Inhibition of cell growth (IC50, μM) by quinoxaline-piperazine compounds against human cancer cell lines: MDA-MB-231
[6] = Homo sapiens, UMRC2, read-out: Inhibition of cell growth (IC50, μM) by quinoxaline-piperazine compounds against human cancer cell lines: UMRC2
[7] = Homo sapiens, PANC-1, read-out: Inhibition of cell growth (IC50, μM) by quinoxaline-piperazine compounds against human cancer cell lines: PANC-1

## COc1cc(OC)cc(N2CCN(C(=O)Nc3nc4ccc(C)cc4nc3OC)CC2)c1 [Compound 131, 1-[(3-Methoxy-6-methylquinoxalin-2-yl)aminocarbonyl]-4-(3,5-dimethoxyphenyl)piperazine]
MDA-MB-231 (breast); [2]
  IC50: 0.16 µM
UMRC2 (kidney); [3]
  IC50: 0.23 µM
PANC-1 (pancreas); [4]
  IC50: 0.36 µM
MKN-45 (stomach)
  IC50: 220 nM
HepG2 (liver)
  IC50: 230 nM
HT-29 (colon)
  IC50: 340 nM
HCT116 (colon)
  IC50: 250 nM
PC3 (prostate)
  IC50: 350 nM
OVCAR-3 (ovary)
  IC50: 140 nM
[1]
  IC50: 240 nM
Caki-1 (kidney)
  IC50: 190 nM
A549 (lung)
  IC50: 240 nM

## COc1nc2cc(Cl)ccc2nc1NC(=O)N1CCN(c2cccc(Cl)c2)CC1 [Compound 120, 1-[(6-Chloro-3-methoxyquinoxalin-2-yl)aminocarbonyl]-4-(3-chlorophenyl)piperazine]
MDA-MB-231 (breast); [2]
  IC50: 0.17 µM
UMRC2 (kidney); [3]
  IC50: 0.17 µM
PANC-1 (pancreas); [4]
  IC50: 0.24 µM
HCT116 (colon)
  IC50: 480 nM
OVCAR-3 (ovary)
  IC50: 360 nM
[1]
  IC50: 600 nM
Caki-1 (kidney)
  IC50: 400 nM
A549 (lung)
  IC50: 750 nM

## COc1cc(OC)cc(N2CCN(C(=O)Nc3nc4ccc(Cl)cc4nc3OC)CC2)c1 [Compound 110, 1-[(6-Chloro-3-methoxyquinoxalin-2-yl)aminocarbonyl]-4-(3,5-dimethoxyphenyl)piperazine]
MDA-MB-231 (breast); [2]
  IC50: 0.18 µM
UMRC2 (kidney); [3]
  IC50: 0.21 µM
PANC-1 (pancreas); [4]
  IC50: 0.28 µM
MKN-45 (stomach)
  IC50: 200 nM
HepG2 (liver)
  IC50: 210 nM
HT-29 (colon)
  IC50: 250 nM
HCT116 (colon)
  IC50: 230 nM
PC3 (prostate)
  IC50: 270 nM
OVCAR-3 (ovary)
  IC50: 130 nM
[1]
  IC50: 210 nM
Caki-1 (kidney)
  IC50: 180 nM
A549 (lung)
  IC50: 240 nM

## COc1nc2cc(F)ccc2nc1NC(=O)N1CCN(c2cccc(C(F)(F)F)c2)CC1 [Compound 95, 1-[(6-Fluoro-3-methoxyquinoxalin-2-yl)aminocarbonyl]-4-(3-trifluorotoly)piperazine]
MDA-MB-231 (breast); MDA-MB-231 (breast), read-out: IC50, MDA-MB-231
  IC50: > 1 µM
UMRC2 (kidney); UMRC2 (kidney), read-out: IC50, UMRC2
  IC50: > 1 µM
PANC-1 (pancreas); PANC-1 (pancreas), read-out: IC50, PANC-1
  IC50: > 1 µM

## COc1nc2ccc(F)cc2nc1NC(=O)N1CCN(c2cccc(C(F)(F)F)c2)CC1 [Compound 11, 1-[(6-Fluoro-2-methoxyquinoxalin-3-yl)aminocarbonyl]-4-(3-trifluorotolyl)piperazine]
MDA-MB-231 (breast); MDA-MB-231, read-out: Inhibition of cell growth (IC50, μM) by quinoxaline-piperazine compounds against human cancer cell lines: MDA-MB-231
  IC50: 0.25 µM
UMRC2 (kidney); UMRC2, read-out: Inhibition of cell growth (IC50, μM) by quinoxaline-piperazine compounds against human cancer cell lines: UMRC2
  IC50: 0.39 µM
PANC-1 (pancreas); PANC-1, read-out: Inhibition of cell growth (IC50, μM) by quinoxaline-piperazine compounds against human cancer cell lines: PANC-1
  IC50: 1.06 µM

## COc1cc2nc(NC(=O)N3CCN(c4cccc(Br)c4)CC3)c(OC)nc2cc1OC [Compound 196, 1-[(2,6,7-Trimethoxyquinoxalin-3-yl)aminocarbonyl]-4-(3-bromophenyl)piperazine]
MDA-MB-231 (breast); [2]
  IC50: 0.72 µM
UMRC2 (kidney); [3]
  IC50: 0.65 µM
PANC-1 (pancreas); [4]
  IC50: 1.05 µM

## COc1cccc(N2CCN(C(=O)Nc3nc4cc(OC)ccc4nc3OC)CC2)c1 [Compound 66, 1-[(2,6-Dimethoxyquinoxalin-3-yl)aminocarbonyl]-4-(3-methoxyphenyl)piperazine]
MDA-MB-231 (breast); [5]
  IC50: > 1 µM
UMRC2 (kidney); [6]
  IC50: > 1 µM
PANC-1 (pancreas); [7]
  IC50: > 1 µM

## COc1cccc(N2CCN(C(=O)Nc3nc4ccc(OC)cc4nc3OC)CC2)c1 [Compound 150, 1-[(3,6-Dimethoxyquinoxalin-2-yl)aminocarbonyl]-4-(3-methoxyphenyl)piperazine]
MDA-MB-231 (breast); [2]
  IC50: ≥ 1 µM
UMRC2 (kidney); [3]
  IC50: > 1 µM
PANC-1 (pancreas); [4]
  IC50: > 1 µM

## COc1cccc(N2CCN(C(=O)Nc3nc4ccc(F)cc4nc3OC)CC2)c1 [Compound 87, 1-[(6-Fluoro-3-methoxyquinoxalin-2-yl)aminocarbonyl]-4-(3-methoxyphenyl)piperazine]
MDA-MB-231 (breast); [5]
  IC50: > 1 µM
UMRC2 (kidney); [6]
  IC50: > 1 µM
PANC-1 (pancreas); [7]
  IC50: > 1 µM
